According to PMC5372168, “Serine protease SP105 activates prophenoloxidase in Asian corn borer melanization, and is regulated by serpin-3” (Scientific Reports, 2017):

Biological target: T1, Asian corn borer prophenoloxidase-2 (OfPPO2; PO2) (Ostrinia furnacalis, UniProt Q2I355)
T1 construct: coding region of mature PPO2 in pET28a, E. coli BL21(DE3), purified
T1 sequence (Q2I355 1-692): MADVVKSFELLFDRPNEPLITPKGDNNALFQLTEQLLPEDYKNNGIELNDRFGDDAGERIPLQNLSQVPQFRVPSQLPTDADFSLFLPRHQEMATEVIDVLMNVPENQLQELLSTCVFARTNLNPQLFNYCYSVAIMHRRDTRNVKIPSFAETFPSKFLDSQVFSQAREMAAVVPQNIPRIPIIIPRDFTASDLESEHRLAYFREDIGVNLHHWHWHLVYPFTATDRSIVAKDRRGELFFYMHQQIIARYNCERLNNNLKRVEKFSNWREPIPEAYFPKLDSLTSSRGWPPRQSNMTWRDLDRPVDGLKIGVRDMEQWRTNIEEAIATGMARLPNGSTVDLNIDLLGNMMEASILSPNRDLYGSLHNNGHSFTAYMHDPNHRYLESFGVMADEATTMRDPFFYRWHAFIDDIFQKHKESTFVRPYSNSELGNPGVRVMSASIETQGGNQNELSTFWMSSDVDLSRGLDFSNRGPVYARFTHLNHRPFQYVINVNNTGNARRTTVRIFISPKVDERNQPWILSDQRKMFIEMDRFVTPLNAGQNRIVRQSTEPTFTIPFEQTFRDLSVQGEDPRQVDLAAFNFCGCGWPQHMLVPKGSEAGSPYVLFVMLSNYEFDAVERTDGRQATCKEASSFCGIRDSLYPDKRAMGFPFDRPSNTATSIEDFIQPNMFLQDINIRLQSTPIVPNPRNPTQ
Test: phenoloxidase assay, A490
Assay type: biochemical
Details: PPO2 activated by Factor Xa-activated SP105Xa, 37 °C 30 min

## NCCc1ccc(O)c(O)c1 [dopamine]
  phenoloxidase assay, A490: PO activity in the reaction mixtures was measured using dopamine as substrate
